Results reported in PubChem BioAssay (NCI).
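48-hour exposure; five concentrations; linearly interpolated endpoints. GI50 is the concentration that inhibits growth by half. The concentration for full growth arrest is given as TGI.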

How the values were obtained:
Assay in all cases: NCI-60 cell line screen, 48 h
SN12C renal = system: SN12C renal
PC-3 prostate = system: PC-3 prostate
EKVX NSCLC = system: EKVX NSCLC
DU-145 prostate = system: DU-145 prostate
SR leukemia = system: SR leukemia
TK-10 renal = system: TK-10 renal
MALME-3M melanoma = system: MALME-3M melanoma
UACC-257 melanoma = system: UACC-257 melanoma
OVCAR-5 ovarian = system: OVCAR-5 ovarian
K-562 leukemia = system: K-562 leukemia
COLO 205 colon = system: COLO 205 colon
M14 melanoma = system: M14 melanoma
UACC-62 melanoma = system: UACC-62 melanoma
MOLT-4 leukemia = system: MOLT-4 leukemia
OVCAR-4 ovarian = system: OVCAR-4 ovarian
NCI-H460 lung = system: NCI-H460 lung
MDA-MB-435 = system: MDA-MB-435
NCI-H226 lung = system: NCI-H226 lung
CCRF-CEM leukemia = system: CCRF-CEM leukemia
NCI/ADR-RES ovarian = system: NCI/ADR-RES ovarian
KM12 colon = system: KM12 colon
SK-MEL-5 melanoma = system: SK-MEL-5 melanoma
SF-539 CNS = system: SF-539 CNS
T-47D breast = system: T-47D breast
SNB-75 CNS = system: SNB-75 CNS
SNB-19 CNS = system: SNB-19 CNS
HOP-62 NSCLC = system: HOP-62 NSCLC
SK-MEL-2 melanoma = system: SK-MEL-2 melanoma
A498 renal = system: A498 renal
OVCAR-3 ovarian = system: OVCAR-3 ovarian
RPMI-8226 leukemia = system: RPMI-8226 leukemia
OVCAR-8 ovarian = system: OVCAR-8 ovarian
HCT-116 colon = system: HCT-116 colon
NCI-H23 lung = system: NCI-H23 lung
NCI-H522 lung = system: NCI-H522 lung
SF-295 CNS = system: SF-295 CNS
HOP-92 NSCLC = system: HOP-92 NSCLC
BT-549 breast = system: BT-549 breast
UO-31 renal = system: UO-31 renal
SF-268 CNS = system: SF-268 CNS
IGROV1 ovarian = system: IGROV1 ovarian
HCC-2998 colon = system: HCC-2998 colon
HCT-15 colon = system: HCT-15 colon
MDA-MB-231 breast = system: MDA-MB-231 breast
HL-60(TB) leukemia = system: HL-60(TB) leukemia
MCF7 breast = system: MCF7 breast
RXF 393 renal = system: RXF 393 renal
HS 578T breast = system: HS 578T breast
HT29 colon = system: HT29 colon
SK-OV-3 ovarian = system: SK-OV-3 ovarian
SK-MEL-28 melanoma = system: SK-MEL-28 melanoma
SW-620 colon = system: SW-620 colon
LOX IMVI melanoma = system: LOX IMVI melanoma

C#C[C@@]1(O)[C@@H](CO)O[C@@H](n2cc(Br)c3c(N)ncnc32)[C@@H]1O
GI50 (SN12C renal): 90.7 nM
TGI (SN12C renal): > 100000 nM
GI50 (PC-3 prostate): 89.3 nM
TGI (PC-3 prostate): > 29500 nM
GI50 (EKVX NSCLC): 198 nM
TGI (EKVX NSCLC): 2680 nM
GI50 (DU-145 prostate): 97.4 nM
TGI (DU-145 prostate): > 100000 nM
GI50 (SR leukemia): 60.8 nM
TGI (SR leukemia): > 100000 nM
GI50 (TK-10 renal): 445 nM
TGI (TK-10 renal): > 92600 nM
GI50 (MALME-3M melanoma): 708 nM
TGI (MALME-3M melanoma): 13100 nM
GI50 (UACC-257 melanoma): 4080 nM
TGI (UACC-257 melanoma): 61600 nM
GI50 (OVCAR-5 ovarian): 593 nM
TGI (OVCAR-5 ovarian): > 75300 nM
GI50 (K-562 leukemia): 60.8 nM
TGI (K-562 leukemia): > 100000 nM
GI50 (COLO 205 colon): 89.1 nM
TGI (COLO 205 colon): 460 nM
GI50 (M14 melanoma): 226 nM
TGI (M14 melanoma): 13500 nM
GI50 (UACC-62 melanoma): 230 nM
TGI (UACC-62 melanoma): 12300 nM
GI50 (MOLT-4 leukemia): 112 nM
GI50 (OVCAR-4 ovarian): 366 nM
TGI (OVCAR-4 ovarian): > 100000 nM
GI50 (NCI-H460 lung): 29.2 nM
TGI (NCI-H460 lung): 901 nM
GI50 (MDA-MB-435): 176 nM
TGI (MDA-MB-435): 10300 nM
GI50 (NCI-H226 lung): 1280 nM
TGI (NCI-H226 lung): > 25200 nM
GI50 (CCRF-CEM leukemia): 200 nM
TGI (CCRF-CEM leukemia): > 100000 nM
GI50 (NCI/ADR-RES ovarian): 45.1 nM
TGI (NCI/ADR-RES ovarian): 1020 nM
GI50 (KM12 colon): 107 nM
TGI (KM12 colon): > 100000 nM
GI50 (SK-MEL-5 melanoma): 107 nM
TGI (SK-MEL-5 melanoma): 1940 nM
GI50 (SF-539 CNS): 298 nM
TGI (SF-539 CNS): 1530 nM
GI50 (T-47D breast): 17.3 nM
TGI (T-47D breast): 177 nM
GI50 (SNB-75 CNS): 234 nM
TGI (SNB-75 CNS): 746 nM
GI50 (SNB-19 CNS): 60.6 nM
GI50 (HOP-62 NSCLC): 300 nM
TGI (HOP-62 NSCLC): > 21800 nM
GI50 (SK-MEL-2 melanoma): 134 nM
TGI (SK-MEL-2 melanoma): 571 nM
GI50 (A498 renal): 227 nM
TGI (A498 renal): 587 nM
GI50 (OVCAR-3 ovarian): 215 nM
TGI (OVCAR-3 ovarian): 3770 nM
GI50 (RPMI-8226 leukemia): 128 nM
TGI (RPMI-8226 leukemia): 828 nM
GI50 (OVCAR-8 ovarian): 13.5 nM
TGI (OVCAR-8 ovarian): 1120 nM
GI50 (HCT-116 colon): 27.4 nM
TGI (HCT-116 colon): > 100000 nM
GI50 (NCI-H23 lung): 191 nM
TGI (NCI-H23 lung): 2850 nM
GI50 (NCI-H522 lung): 97.8 nM
TGI (NCI-H522 lung): 444 nM
GI50 (SF-295 CNS): 297 nM
TGI (SF-295 CNS): 7520 nM
GI50 (HOP-92 NSCLC): 218 nM
TGI (HOP-92 NSCLC): 1460 nM
GI50 (BT-549 breast): 186 nM
TGI (BT-549 breast): 663 nM
GI50 (UO-31 renal): 130 nM
TGI (UO-31 renal): 1500 nM
GI50 (SF-268 CNS): 482 nM
TGI (SF-268 CNS): 51700 nM
GI50 (IGROV1 ovarian): 69.9 nM
TGI (IGROV1 ovarian): 485 nM
GI50 (HCC-2998 colon): 201 nM
TGI (HCC-2998 colon): 809 nM
GI50 (HCT-15 colon): 110 nM
TGI (HCT-15 colon): > 100000 nM
GI50 (MDA-MB-231 breast): 110 nM
TGI (MDA-MB-231 breast): > 100000 nM
GI50 (HL-60(TB) leukemia): 21.8 nM
TGI (HL-60(TB) leukemia): 75.7 nM
GI50 (MCF7 breast): 22.2 nM
TGI (MCF7 breast): 1470 nM
GI50 (RXF 393 renal): 480 nM
TGI (RXF 393 renal): 2290 nM
GI50 (HS 578T breast): 644 nM
TGI (HS 578T breast): > 72400 nM
GI50 (HT29 colon): 38 nM
TGI (HT29 colon): > 100000 nM
GI50 (SK-OV-3 ovarian): 44.1 nM
TGI (SK-OV-3 ovarian): 439 nM
GI50 (SK-MEL-28 melanoma): 3650 nM
TGI (SK-MEL-28 melanoma): 38100 nM
GI50 (SW-620 colon): 48.7 nM
TGI (SW-620 colon): > 100000 nM
GI50 (LOX IMVI melanoma): 55.2 nM
TGI (LOX IMVI melanoma): 249 nM
